In ChEMBL document CHEMBL1255313 (Antimicrob Agents Chemother, 2008):

What was measured:
Homo sapiens [1] = test: AUC (0 to 72) in healthy human plasma assessed as (R,R)-hydroxybupropion level at 150 mg, po co-treated with ritonavir 200 mg tid for 1 day, 300 mg bid for next 6 days, 400 mg bid upto 17 day of study measured after 48 hrs by high-performance liquid chromatography-tandem mass spectrometry; format: ADME, organism-based; design: dose 150 mg, time < 72 hr, route oral; details: in vivo, 72 h
[2] = Apparent renal clearance in human at 150 mg, po co-treated with ritonavir 200 mg tid for 1 day, 300 mg bid for next 6 days, 400 mg bid upto 17 day of study using 0-48 hrs urine sample; format: ADME, organism-based; details: read-out: CL_renal
clinical [3] = details: human, plasma, po
Homo sapiens [4] = test: AUC (0 to 72) in healthy human plasma assessed as (S,S)-hydroxybupropion level at 150 mg, po co-treated with ritonavir 200 mg tid for 1 day, 300 mg bid for next 2 days measured after 48 hrs by high-performance liquid chromatography-tandem mass spectrometry; format: ADME, organism-based; design: dose 150 mg, time < 72 hr, route oral; details: in vivo, 72 h
Homo sapiens [5] = test: Apparent renal clearance in human assessed as Hydroxybupropion at 150 mg, po co-treated with ritonavir 200 mg tid for 1 day, 300 mg bid for next 6 days, 400 mg bid upto 17 day of study using 0-48 hrs urine sample; format: ADME, organism-based; details: in vivo
Homo sapiens [6] = test: Tmax in healthy human plasma assessed as (S,S)-hydroxybupropion level at 150 mg, po co-treated with ritonavir 200 mg tid for 1 day, 300 mg bid for next 2 days measured after 48 hrs by high-performance liquid chromatography-tandem mass spectrometry; format: ADME, organism-based; details: in vivo
Homo sapiens [7] = test: AUC (0 to 72) in healthy human plasma assessed as hydroxybupropion level at 150 mg, po co-treated with ritonavir 200 mg tid for 1 day, 300 mg bid for next 2 days measured after 48 hrs; format: ADME, organism-based; design: time < 72 hr, dose 150 mg, route oral; details: in vivo, 72 h
[8] = Apparent renal clearance in human at 150 mg, po co-treated with ritonavir 200 mg tid for 1 day, 300 mg bid for next 2 days using 0-48 hrs urine sample; format: ADME, organism-based; details: read-out: CL_renal
Homo sapiens [9] = test: AUC (0 to infinity) in healthy human plasma assessed as (R,R)-hydroxybupropion level at 150 mg, po co-treated with ritonavir 200 mg tid for 1 day, 300 mg bid for next 2 days measured after 48 hrs by high-performance liquid chromatography-tandem mass spectrometry; format: ADME, organism-based; design: dose 150 mg, time infinity, route oral; details: in vivo
[10] = Apparent clearance with respect to oral bioavailability in human at 150 mg, po co-treated with ritonavir 200 mg tid for 1 day, 300 mg bid for next 6 days, 400 mg bid upto 17 day of study measured after 48 hrs; format: ADME, organism-based; details: in vivo
Homo sapiens [11] = test: Apparent renal clearance in human assessed as Hydroxybupropion at 150 mg, po co-treated with ritonavir 200 mg tid for 1 day, 300 mg bid for next 2 days using 0-48 hrs urine sample; format: ADME, organism-based; details: in vivo
clinical [12] = details: human, plasma, po; remark: listed apart in the source
Homo sapiens [13] = test: Tmax in healthy human plasma assessed as hydroxybupropion level at 150 mg, po co-treated with ritonavir 200 mg tid for 1 day, 300 mg bid for next 2 days measured after 48 hrs; format: ADME, organism-based; details: in vivo
Homo sapiens [14] = test: Apparent renal clearance in human assessed as (R,R)-Hydroxybupropion at 150 mg, po co-treated with ritonavir 200 mg tid for 1 day, 300 mg bid for next 6 days, 400 mg bid upto 17 day of study using 0-48 hrs urine sample by high-performance liquid chromatography-tandem mass spectrometry; format: ADME, organism-based; details: in vivo
[15] = Apparent clearance with respect to oral bioavailability in human at 150 mg, po co-treated with ritonavir 200 mg tid for 1 day, 300 mg bid for next 2 days measured after 48 hrs; format: ADME, organism-based; details: in vivo
Homo sapiens [16] = test: (§1) Tmax in healthy human plasma assessed as (R,R)-hydroxybupropion level at 150 mg, po co-treated with ritonavir 200 mg tid for 1 day, 300 mg bid for next 6 days, 400 mg bid upto 17 day of study measured after 48 hrs by high-performance liquid chromatography-tandem mass spectrometry; format: ADME, organism-based; details: in vivo
Homo sapiens [17] = test: AUC (0 to infinity) in healthy human plasma assessed as (S,S)-hydroxybupropion level at 150 mg, po co-treated with ritonavir 200 mg tid for 1 day, 300 mg bid for next 6 days, 400 mg bid upto 17 day of study measured after 48 hrs by high-performance liquid chromatography-tandem mass spectrometry; format: ADME, organism-based; design: dose 150 mg, time infinity, route oral; details: in vivo
Homo sapiens [18] = test: Apparent renal clearance in human assessed as (S,S)-Hydroxybupropion at 150 mg, po co-treated with ritonavir 200 mg tid for 1 day, 300 mg bid for next 6 days, 400 mg bid upto 17 day of study using 0-48 hrs urine sample by high-performance liquid chromatography-tandem mass spectrometry; format: ADME, organism-based; details: in vivo
Homo sapiens [19] = test: Apparent renal clearance in human assessed as (S,S)-Hydroxybupropion at 150 mg, po co-treated with ritonavir 200 mg tid for 1 day, 300 mg bid for next 2 days using 0-48 hrs urine sample by high-performance liquid chromatography-tandem mass spectrometry; format: ADME, organism-based; details: in vivo
Homo sapiens [20] = test: AUC (0 to infinity) in healthy human plasma assessed as hydroxybupropion level at 150 mg, po co-treated with ritonavir 200 mg tid for 1 day, 300 mg bid for next 2 days measured after 48 hrs; format: ADME, organism-based; design: dose 150 mg, time infinity, route oral; details: in vivo
Homo sapiens [21] = test: Tmax in healthy human plasma assessed as hydroxybupropion level at 150 mg, po co-treated with ritonavir 200 mg tid for 1 day, 300 mg bid for next 6 days, 400 mg bid upto 17 day of study measured after 48 hrs; format: ADME, organism-based; details: in vivo
Homo sapiens [22] = test: Apparent renal clearance in human assessed as (R,R)-Hydroxybupropion at 150 mg, po co-treated with ritonavir 200 mg tid for 1 day, 300 mg bid for next 2 days using 0-48 hrs urine sample by high-performance liquid chromatography-tandem mass spectrometry; format: ADME, organism-based; details: in vivo
clinical [23] = details: human, plasma, po; remark: listed apart in the source
[24] = AUC in healthy human plasma at 400 mg, po bid for 2 weeks; format: ADME, organism-based
[25] = AUC in healthy human plasma at 100 mg, po bid for 2 weeks; format: ADME, organism-based
Homo sapiens [26] = test: Tmax in healthy human plasma assessed as (R,R)-hydroxybupropion level at 150 mg, po co-treated with ritonavir 200 mg tid for 1 day, 300 mg bid for next 2 days measured after 48 hrs by high-performance liquid chromatography-tandem mass spectrometry; format: ADME, organism-based; details: in vivo
clinical [27] = details: human, plasma, po; remark: listed apart in the source
Homo sapiens [28] = test: AUC (0 to 72) in healthy human plasma assessed as (R,R)-hydroxybupropion level at 150 mg, po co-treated with ritonavir 200 mg tid for 1 day, 300 mg bid for next 2 days measured after 48 hrs by high-performance liquid chromatography-tandem mass spectrometry; format: ADME, organism-based; design: time < 72 hr, dose 150 mg, route oral; details: in vivo, 72 h
[29] = AUC (0 to infinity) in healthy human plasma at 150 mg, po co-treated with ritonavir 200 mg tid for 1 day, 300 mg bid for next 6 days, 400 mg bid upto 17 day of study measured after 48 hrs; format: ADME, organism-based; design: dose 150 mg, time infinity, route oral
Homo sapiens [30] = test: AUC (0 to infinity) in healthy human plasma assessed as hydroxybupropion level at 150 mg, po co-treated with ritonavir 200 mg tid for 1 day, 300 mg bid for next 6 days, 400 mg bid upto 17 day of study measured after 48 hrs; format: ADME, organism-based; design: dose 150 mg, route oral, time infinity; details: in vivo
[31] = AUC (0 to infinity) in healthy human plasma at 150 mg, po co-treated with ritonavir 200 mg tid for 1 day, 300 mg bid for next 2 days measured after 48 hrs; format: ADME, organism-based; design: dose 150 mg, route oral, time infinity
Homo sapiens [32] = test: AUC (0 to infinity) in healthy human plasma assessed as (R,R)-hydroxybupropion level at 150 mg, po co-treated with ritonavir 200 mg tid for 1 day, 300 mg bid for next 6 days, 400 mg bid upto 17 day of study measured after 48 hrs by high-performance liquid chromatography-tandem mass spectrometry; format: ADME, organism-based; design: dose 150 mg, time infinity, route oral; details: in vivo
Homo sapiens [33] = test: AUC (0 to 72) in healthy human plasma assessed as hydroxybupropion level at 150 mg, po co-treated with ritonavir 200 mg tid for 1 day, 300 mg bid for next 6 days, 400 mg bid upto 17 day of study measured after 48 hrs; format: ADME, organism-based; design: dose 150 mg, time < 72 hr, route oral; details: in vivo, 72 h
Homo sapiens [34] = test: AUC (0 to 72) in healthy human plasma assessed as (S,S)-hydroxybupropion level at 150 mg, po co-treated with ritonavir 200 mg tid for 1 day, 300 mg bid for next 6 days, 400 mg bid upto 17 day of study measured after 48 hrs by high-performance liquid chromatography-tandem mass spectrometry; format: ADME, organism-based; design: dose 150 mg, time < 72 hr, route oral; details: in vivo, 72 h
Homo sapiens [35] = test: AUC (0 to infinity) in healthy human plasma assessed as (S,S)-hydroxybupropion level at 150 mg, po co-treated with ritonavir 200 mg tid for 1 day, 300 mg bid for next 2 days measured after 48 hrs by high-performance liquid chromatography-tandem mass spectrometry; format: ADME, organism-based; design: dose 150 mg, time infinity, route oral; details: in vivo
Homo sapiens [36] = test: as §1, with “Tmax in healthy human plasma assessed as (S,S)-hydroxybupropion” for “(R,R)-hydroxybupropion”; format: ADME, organism-based; details: in vivo

## CC(NC(C)(C)C)C(=O)c1cccc(Cl)c1 (racemic) [BUPROPION]
Homo sapiens [1]
  AUC: 5829 ng·h/mL
[2]
  CL renal: 21 mL/min
Clinical [3]
  half-life: 17.8 h
Homo sapiens [4]
  AUC: 356 ng·h/mL
Homo sapiens [5]
  CL_renal: 183 mL/min
Homo sapiens [6]
  Tmax: 1.7 h
Homo sapiens [7]
  AUC: 8470 ng·h/mL
[8]
  CL renal: 20 mL/min
Homo sapiens [9]
  AUC: 10950 ng·h/mL
[10]
  CL/F: 3240 mL/min
Homo sapiens [11]
  CL_renal: 143 mL/min
Clinical [12]
  half-life: 16.8 h
Homo sapiens [13]
  Tmax: 3.6 h
Homo sapiens [14]
  CL_renal: 217 mL/min
[15]
  CL/F: 2470 mL/min
Homo sapiens [16]
  Tmax: 3.5 h
Homo sapiens [17]
  AUC: 303 ng·h/mL
Homo sapiens [18]
  CL_renal: 134 mL/min
Homo sapiens [19]
  CL_renal: 96 mL/min
Homo sapiens [20]
  AUC: 11330 ng·h/mL
Homo sapiens [21]
  Tmax: 3.4 h
Homo sapiens [22]
  CL_renal: 172 mL/min
Clinical [23]
  Cmax: 345 ng/mL
[24]
  AUC at 336 h: 57 ng·h/mL
[25]
  AUC at 336 h: 50 ng·h/mL
Homo sapiens [26]
  Tmax: 3.8 h
Clinical [27]
  Cmax: 267 ng/mL
Homo sapiens [28]
  AUC: 8120 ng·h/mL
[29]
  AUC(0-inf): 1030 ng·h/mL
Homo sapiens [30]
  AUC: 7560 ng·h/mL
[31]
  AUC(0-inf): 1290 ng·h/mL
Homo sapiens [32]
  AUC: 7330 ng·h/mL
Homo sapiens [33]
  AUC: 6100 ng·h/mL
Homo sapiens [34]
  AUC: 274 ng·h/mL
Homo sapiens [35]
  AUC: 404 ng·h/mL
Homo sapiens [36]
  Tmax: 1.5 h
